Laboratory results taken from US11450448B2, “Use of a linear octafluorobutene as a dielectric compound in an environmentally safe dielectric-insulation or arc-extinction fluid” (HITACHI ENERGY SWITZERLAND AG, priority 2016, dated 2022).

Legend:
[1] = Decomposition tests: accelerated ageing with GIS materials; type: physicochemical; conditions: aged at 100° C. with Cu/Al plates, EPDM sealings, zeolites, SiO2, paints, grease, nitrile-butadiene rubber; analysed after 8 weeks of exposure
Description: In order to assess the material compatibility of octafluoro-2-butene towards material typically used in a GIS, the following components were aged at accelerated conditions (at 100° C.) with octafluoro-2-butene gas:
Both the gas as well as the components exposed to the gas were analysed after 8 weeks of exposure.

[2] = test system: rats; test: median lethal concentration (LC50) measured on rats; type: in vivo; conditions: compared with C4N and C5K
From the text: Specifically, the term “environmentally safe” also means that the dielectric-insulation or arc-extinction fluid has a relatively low toxicity level. More specifically, the median lethal dose (LC50; lethal concentration 50%; measured on rats) of the dielectric compound used in the environmentally safe dielectric-insulation or arc-extinction fluid is higher than 4′000 ppm, preferably higher than 5′000 ppm and more preferably higher than 6′000 ppm. Thus, the dielectric compound used according to the present invention ranges within the same toxicity class as previously mentioned C4N (having a much higher GWP than the dielectric compound used according to the present invention) and C5K (having a much higher boiling point than the dielectric compound used according to the present invention).

FC(=C(F)C(F)(F)F)C(F)(F)F [octafluoro-2-butene]
decomposition of the gas [1]: For none of the tests, a decomposition of the octafluoro-2-butene was determined

linear octafluorobutene [linear octafluorobutenes]
toxicity class [2]: ranges within the same toxicity class as for example heptafluoroisobutyronitrile (C4N) and 1,1,1,3,4,4,4-heptafluoro-3-(trifluoromethyl)-butan-2-one (C5K)
